# Tested on: CMV promoter activity in transformed (adenovirus) cells
# Assay: CMV promoter assay (gene transcription and translation; cytotoxicity in transformed cells)
# Assay type: cell-based
# Details: not given
# Description: (§1) FIG. 18 illustrates data regarding proliferative activity of various inventive compounds for inducting CMV promoter activity. The CMV promoter assay measures gene transcription and translation activity wherein any active compounds will have cytotoxic activity to inhibit cellular protein synthesis machinery in transformed (adenovirus) cells.
# as §1, with “This example” for “FIG. 18”
row,SMILES,IC50 [µM]
1,"C=CCCCCN1C(=O)c2ccccc2C1=O [CT1101, N(5-hexenyl)phthalimide]",250
2,"C=CCCCCCCCN1C(=O)c2ccccc2C1=O [CT1102, N(8-nonenyl)phthalimide]",175
3,"C=CCCCCCCCn1c(=O)c2[nH]cnc2n(C)c1=O [CT1405, 1-(8-nonenyl)-3-methylxanthine]",100
4,"C=CCCCCn1c(=O)c2[nH]cnc2n(C)c1=O [CT1438, 1-(5-hexenyl)-3-methylxanthine]",> 500
5,"C=CCn1c(=O)c2c(ncn2C)n(C)c1=O [CT1531, 1-(2-propenyl)-3,7-dimethylxanthine]",50
6,"C=CCCCCCCCn1c(=O)c2c(ncn2C)n(C)c1=O [CT1550, 1-(8-nonenyl)-3,7-dimethylxanthine]",75
7,"C=CCCCn1c(=O)c2c(ncn2C)n(C)c1=O [CT1575, 1-(4-pentenyl)-3,7-dimethylxanthine]",> 500
8,"C/C=C/CCCn1c(=O)c2c(ncn2C)n(C)c1=O [CT1581, 1-(trans-4-Hexenyl)-3,7-dimethylxanthine]",> 500
9,"CC(C)=CCC[C@@H](C)CCn1c(=O)c2c(ncn2C)n(C)c1=O [CT1596R, 1-(3-(R)-methyl-7-methyloct-6-enyl)-3,7-dimethylxanthine]",> 500
10,"CC(C)=CCC[C@H](C)CCn1c(=O)c2c(ncn2C)n(C)c1=O [CT1596S, 1-(3-(S)-methyl-7-methyloct-6-enyl)-3,7-dimethylxanthine]",40
11,"C=CCCCCCCCN1C(=O)CCCC1=O [CT1604, N-(8-nonenyl)glutarimide]",100
12,"C=CCCCCN1C(=O)CCN(C)C1=O [CT1812, 3-(5-hexenyl)-1-methyldihydrouracil]",> 100
13,"CC/C=C\CCCCCn1c(=O)ccn(C)c1=O [CT1814, 3-(6-cis-nonenyl)1-methyluracil]",100
14,"C=CCCCCCCCn1c(=O)ccn(C)c1=O [CT1817, 3-(8-nonenyl)1-methyluracil]",250
15,"C=CCCCCn1c(=O)c(C)cn(C)c1=O [CT1905, 3-(5-hexenyl)-1-methylthymine]",> 500

# Same assay, conditions: Table 2 / FIG. 18
row,SMILES,cytotoxicity ranking in CMV promoter assay
1,"CC(C)=CCC[C@H](C)CCn1c(=O)c2c(ncn2C)n(C)c1=O [CT1596S, 1-(3-(S)-methyl-7-methyloct-6-enyl)-3,7-dimethylxanthine]",the most cytotoxic compound tested

# Tested on: mast cell degranulation
# Assay: Serotonin release assay (inhibition of mast cell degranulation)
# Assay type: cell-based
# Details: 25 uM; Table 4; average corrected for spontaneous release
# Description: A serotonin release assay is utilized to study the utility of the inventive compounds for treatment of asthma and allergy. […] This assay measures mast cell degranulation, which is an early phase reaction to allergen challenge. Mast cells grown in tissue culture are first loaded with ^3 H serotonin, which is incorporated into the granules in the cells. The mast cells are sensitized with antigen specific monoclonal IgE, and then triggered to degranulate with the specific antigen (dinitorphenolbound to BSA (DNP)). When the cells degranulate, ^3 H Serotonin is released into the medium, and can be measured directly. The ability of the inventive compounds to inhibit the degranulation response is determined by the decrease in ^3 H Serotonin released in the presence of drug and is represented as % INHIBITION.
# Specifically, the serotonin release assay seeds 2×10^5 cells in 0.5 ml medium in duplicate for spontaneous release, IgE+DNP, IgE+DNP+EtOH (vehicle control), and inventive compounds. […] The cells are incubated for 18 hours at 37° C. in 5% CO2, washed twice with 0.5 ml Isotonic Buffer (25 mM disodium PIPES pH 7.1,100 mM NaCl, 5 mM KCl, 5 mM glucose, 0.4 mM MgCl2, 1mM CaCl2, 0.1% BSA), and sterile filtered. 250 μl Isotonic Buffer is added per well and the plates are equilibrated in an incubator for about 10 min. Drug is added and cells are activated with 40 ng/ml DNP-BSA (1 mg/ml Diluted 1:200 in Isotonic Buffer) for 45 minutes using 2 μl/250 μl. Spontaneous release is determined in incubated cells with 250 μl Isotonic Buffer for 45 minutes and the reaction is stopped by removing supernatant and centrifuging at ~4000 rpm in microfuge for 15 seconds to remove any detached cells. Released radiolableled serotonin is counted. To determine amount of ^3 H-serotonin incorporated into the cells, (a) remove Isotonic Buffer and lyse cells by adding 250 μl 1% Triton-X100 in PBS, (b) add to 5 ml scintillation fluid, (c) wash 2× with Triton/PBS, and (d) add washes to scintillation tube. Percent serotonin release is calculated by dividing the amount of released serotonin by the sum of incorporated plus released serotonin and correcting for spontaneous released serotonin. Compound inhibition is calculated by dividing the percent serotonin release in the presence of a compound by the percent serotonin release in the absence of the compound.
# This assay is described above and provides an in vitro model for an allergy and asthma therapeutic product.
row,SMILES,RELEASE-SPONT [%]
1,"C=CCCCCCCCN1C(=O)CCCC1=O [CT1604, N-(8-nonenyl)glutarimide]",4.85

# Same assay, conditions: 25 uM; Table 4; average of duplicates
row,SMILES,AVERAGE % RELEASE [%]
1,"C=CCCCCCCCN1C(=O)CCCC1=O [CT1604, N-(8-nonenyl)glutarimide]",21.41

# Same assay, conditions: 50 μM
row,SMILES,activity in serotonin release assay
1,"C=CCCCn1c(=O)c2c(ncn2C)n(C)c1=O [CT1575, 1-(4-pentenyl)-3,7-dimethylxanthine]",the two most potent compounds in this group
2,"C=CCCCCCCCN1C(=O)CCCC1=O [CT1604, N-(8-nonenyl)glutarimide]",appear to be quite potent
3,"C=CCCCCN1C(=O)CCN(C)C1=O [CT1812, 3-(5-hexenyl)-1-methyldihydrouracil]",just not having much of an effect at 50 μM
4,"CC/C=C\CCCCCn1c(=O)ccn(C)c1=O [CT1814, 3-(6-cis-nonenyl)1-methyluracil]",appears to decrease the activity

# Same assay, conditions: 50 μM; Table 3
row,SMILES,% INHIBITION (serotonin release)
1,"C=CCCCCN1C(=O)CCN(C)C1=O [CT1812, 3-(5-hexenyl)-1-methyldihydrouracil]",no inhibi-

# Same assay, conditions: 50 μM; Table 4; average corrected for spontaneous release
row,SMILES,RELEASE-SPONT [%]
1,"C=CCCCCN1C(=O)c2ccccc2C1=O [CT1101, N(5-hexenyl)phthalimide]",2.05
2,"C=CCCCCCCCN1C(=O)c2ccccc2C1=O [CT1102, N(8-nonenyl)phthalimide]",2.32
3,"C=CCCCCCCCn1c(=O)c2[nH]cnc2n(C)c1=O [CT1405, 1-(8-nonenyl)-3-methylxanthine]",5.13
4,"C=CCn1c(=O)c2c(ncn2C)n(C)c1=O [CT1531, 1-(2-propenyl)-3,7-dimethylxanthine]",6.99
5,"C=CCCCCCCCn1c(=O)c2c(ncn2C)n(C)c1=O [CT1550, 1-(8-nonenyl)-3,7-dimethylxanthine]",6.94
6,"C=CCCCn1c(=O)c2c(ncn2C)n(C)c1=O [CT1575, 1-(4-pentenyl)-3,7-dimethylxanthine]",4.33
7,"C/C=C/CCCn1c(=O)c2c(ncn2C)n(C)c1=O [CT1581, 1-(trans-4-Hexenyl)-3,7-dimethylxanthine]",4.31
8,"CC(C)=CCC[C@@H](C)CCn1c(=O)c2c(ncn2C)n(C)c1=O [CT1596R, 1-(3-(R)-methyl-7-methyloct-6-enyl)-3,7-dimethylxanthine]",6.59
9,"CC(C)=CCC[C@H](C)CCn1c(=O)c2c(ncn2C)n(C)c1=O [CT1596S, 1-(3-(S)-methyl-7-methyloct-6-enyl)-3,7-dimethylxanthine]",3.15
10,"C=CCCCCCCCN1C(=O)CCCC1=O [CT1604, N-(8-nonenyl)glutarimide]",0.41
11,"C=CCCCCN1C(=O)CCN(C)C1=O [CT1812, 3-(5-hexenyl)-1-methyldihydrouracil]",8.27
12,"CC/C=C\CCCCCn1c(=O)ccn(C)c1=O [CT1814, 3-(6-cis-nonenyl)1-methyluracil]",5.94
13,"C=CCCCCCCCn1c(=O)ccn(C)c1=O [CT1817, 3-(8-nonenyl)1-methyluracil]",3.57
14,"C=CCCCCn1c(=O)c(C)cn(C)c1=O [CT1905, 3-(5-hexenyl)-1-methylthymine]",4.94

# Same assay, conditions: 50 μM; Table 4; average of duplicates
row,SMILES,AVERAGE % RELEASE [%]
1,"C=CCCCCN1C(=O)c2ccccc2C1=O [CT1101, N(5-hexenyl)phthalimide]",18.60
2,"C=CCCCCCCCN1C(=O)c2ccccc2C1=O [CT1102, N(8-nonenyl)phthalimide]",18.88
3,"C=CCCCCCCCn1c(=O)c2[nH]cnc2n(C)c1=O [CT1405, 1-(8-nonenyl)-3-methylxanthine]",21.69
4,"C=CCn1c(=O)c2c(ncn2C)n(C)c1=O [CT1531, 1-(2-propenyl)-3,7-dimethylxanthine]",23.55
5,"C=CCCCCCCCn1c(=O)c2c(ncn2C)n(C)c1=O [CT1550, 1-(8-nonenyl)-3,7-dimethylxanthine]",23.50
6,"C=CCCCn1c(=O)c2c(ncn2C)n(C)c1=O [CT1575, 1-(4-pentenyl)-3,7-dimethylxanthine]",20.89
7,"C/C=C/CCCn1c(=O)c2c(ncn2C)n(C)c1=O [CT1581, 1-(trans-4-Hexenyl)-3,7-dimethylxanthine]",20.87
8,"CC(C)=CCC[C@@H](C)CCn1c(=O)c2c(ncn2C)n(C)c1=O [CT1596R, 1-(3-(R)-methyl-7-methyloct-6-enyl)-3,7-dimethylxanthine]",23.14
9,"CC(C)=CCC[C@H](C)CCn1c(=O)c2c(ncn2C)n(C)c1=O [CT1596S, 1-(3-(S)-methyl-7-methyloct-6-enyl)-3,7-dimethylxanthine]",19.71
10,"C=CCCCCCCCN1C(=O)CCCC1=O [CT1604, N-(8-nonenyl)glutarimide]",16.96
11,"C=CCCCCN1C(=O)CCN(C)C1=O [CT1812, 3-(5-hexenyl)-1-methyldihydrouracil]",24.83
12,"CC/C=C\CCCCCn1c(=O)ccn(C)c1=O [CT1814, 3-(6-cis-nonenyl)1-methyluracil]",22.50
13,"C=CCCCCCCCn1c(=O)ccn(C)c1=O [CT1817, 3-(8-nonenyl)1-methyluracil]",20.12
14,"C=CCCCCn1c(=O)c(C)cn(C)c1=O [CT1905, 3-(5-hexenyl)-1-methylthymine]",21.49

# Same assay, conditions: Mast cell; 25 uM; Table 4
row,SMILES,inhibition at 25 µM [%]
1,"C=CCCCCCCCN1C(=O)CCCC1=O [CT1604, N-(8-nonenyl)glutarimide]",39.5

# Same assay, conditions: Mast cell; 50 μM; Table 4
row,SMILES,inhibition at 50 µM [%]
1,"C=CCCCCN1C(=O)c2ccccc2C1=O [CT1101, N(5-hexenyl)phthalimide]",74.5
2,"C=CCCCCCCCN1C(=O)c2ccccc2C1=O [CT1102, N(8-nonenyl)phthalimide]",71.1
3,"C=CCCCCCCCn1c(=O)c2[nH]cnc2n(C)c1=O [CT1405, 1-(8-nonenyl)-3-methylxanthine]",36
4,"C=CCn1c(=O)c2c(ncn2C)n(C)c1=O [CT1531, 1-(2-propenyl)-3,7-dimethylxanthine]",12.8
5,"C=CCCCCCCCn1c(=O)c2c(ncn2C)n(C)c1=O [CT1550, 1-(8-nonenyl)-3,7-dimethylxanthine]",13.4
6,"C=CCCCn1c(=O)c2c(ncn2C)n(C)c1=O [CT1575, 1-(4-pentenyl)-3,7-dimethylxanthine]",46
7,"C/C=C/CCCn1c(=O)c2c(ncn2C)n(C)c1=O [CT1581, 1-(trans-4-Hexenyl)-3,7-dimethylxanthine]",46.3
8,"CC(C)=CCC[C@@H](C)CCn1c(=O)c2c(ncn2C)n(C)c1=O [CT1596R, 1-(3-(R)-methyl-7-methyloct-6-enyl)-3,7-dimethylxanthine]",17.9
9,"CC(C)=CCC[C@H](C)CCn1c(=O)c2c(ncn2C)n(C)c1=O [CT1596S, 1-(3-(S)-methyl-7-methyloct-6-enyl)-3,7-dimethylxanthine]",60.7
10,"C=CCCCCCCCN1C(=O)CCCC1=O [CT1604, N-(8-nonenyl)glutarimide]",94.9
11,"C=CCCCCN1C(=O)CCN(C)C1=O [CT1812, 3-(5-hexenyl)-1-methyldihydrouracil]",-3.14
12,"CC/C=C\CCCCCn1c(=O)ccn(C)c1=O [CT1814, 3-(6-cis-nonenyl)1-methyluracil]",25.9
13,"C=CCCCCCCCn1c(=O)ccn(C)c1=O [CT1817, 3-(8-nonenyl)1-methyluracil]",55.5
14,"C=CCCCCn1c(=O)c(C)cn(C)c1=O [CT1905, 3-(5-hexenyl)-1-methylthymine]",38.5

# — patent publication US5521315A, “Olefin substituted long chain compounds” (priority 1993, dated 1996)
